{"source": "patent US20180280480A1", "about": "“COMPOSITIONS AND PEPTIDES HAVING DUAL GLP-1R AND GLP-2R AGONIST ACTIVITY” (priority 2014, published 2018)", "key": {"[1]": {"tested_on": "diabetic db/db (BKS.Cg-m+/+Leprdb/J) male mice", "experiment": "Intestinal volume and surface area (stereology) in diabetic db/db mice", "format": "in vivo", "conditions": "for Large intestine surface area / Large intestine volume / Small intestine surface area / Small intestine volume: Day 58, mean ± S.E.M.", "protocol": "A total of forty-six (46) diabetic db/db (BKS.Cg-m+/+Leprdb/J) male mice, 5 weeks old at arrival, was obtained from Janvier (France). […] They were housed in groups of n=2 in a light-, temperature-, and humidity-controlled room (12-hour light: 12-hour dark cycle, lights On/Off at 04.00/16.00 h; 22±1° C.; 50±10% relative humidity). During the habituation period animals was accustomed to the experimental paradigm.\n(§1) Baseline, free fed blood glucose samples were obtained bi-weekly prior to study start (blood was collected from the tail vein) in order to screen for the diabetic state. The 40 animals closest to the mean BG/BW value at day −3 were randomized into 4 groups (n=10/group; the remaining 6 animals was be discarded from the main study): Group 1: Vehicle, BID, SC. […] During day 0-58 of the experiment, animals received a subcutaneous dosing twice daily at 06.00-08.00 hours and again between 02.00-04.00 hours. Dose volume was 5 ml/kg.\nAt the end of the study period mice were terminated by decapitation under isoflurane anaesthesia. The entire intestine was dissected out and divided into small and large which was then measured in length."}, "GLP-2R": {"target": "T1, GLP-2R (Homo sapiens, UniProt O95838)", "T1 sequence (O95838 1-553)": "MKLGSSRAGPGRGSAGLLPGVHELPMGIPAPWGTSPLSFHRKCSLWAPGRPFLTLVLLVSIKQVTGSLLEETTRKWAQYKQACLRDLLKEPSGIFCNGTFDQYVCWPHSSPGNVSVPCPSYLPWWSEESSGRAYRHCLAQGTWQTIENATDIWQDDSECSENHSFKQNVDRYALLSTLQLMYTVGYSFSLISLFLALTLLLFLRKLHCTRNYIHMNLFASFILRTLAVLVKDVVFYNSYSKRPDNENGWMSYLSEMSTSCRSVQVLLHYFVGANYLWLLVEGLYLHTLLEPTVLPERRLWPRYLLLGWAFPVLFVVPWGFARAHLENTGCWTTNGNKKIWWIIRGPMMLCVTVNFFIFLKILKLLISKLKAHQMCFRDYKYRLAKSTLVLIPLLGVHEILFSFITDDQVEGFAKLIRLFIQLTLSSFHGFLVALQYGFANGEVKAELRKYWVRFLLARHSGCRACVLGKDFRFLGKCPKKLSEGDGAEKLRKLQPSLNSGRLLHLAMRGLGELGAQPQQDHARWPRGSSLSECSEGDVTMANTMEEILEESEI", "experiment": "GLP2 receptor efficacy assay (in vitro functional screen, Euroscreen or DiscoveRx)", "conditions": "Table 1"}, "C57BL/6J mice": {"tested_on": "C57BL/6J mice", "experiment": "GLP1R-GLP2R dual agonist compound study: oral glucose tolerance test", "format": "in vivo", "protocol": "On day 7, an oral glucose tolerance test (OGTT) was performed. Animals were mildly fasted as all food was removed 4 hours prior to the oral glucose load. Vehicle (SC) and compounds were administered subcutaneously (SC) 2 hours prior to the OGTT. At t=0 mice received an oral glucose load (2 g/kg; 4 ml/kg; 500 mg/ml, Fresenius Kabi, Sweden). Glucose was given as gavage via a gastrically-placed tube connected to a syringe ensuring accurate dosing. Blood glucose was measured from tail vein blood before glucose (at t=−120 and 0 min, baseline) and after glucose administration at t=15, 30, 60 and 120 min. Blood samples (tail vein) was collected into 10 μl heparinized glass capillary tubes and immediately suspended in buffer (0.5 ml of glucose/lactate system solution (EKF-diagnostics, Germany) and analyzed for glucose on the test day using a BIOSEN c-Line glucose meter (EKF-diagnostics, Germany) according to manufacturer's instructions. Results from the OGTT are listed below in Table 11."}, "[2]": {"tested_on": "diabetic db/db (BKS.Cg-m+/+Leprdb/J) male mice", "experiment": "Fed blood glucose and HbA1c in diabetic db/db mice", "format": "in vivo", "conditions": "for Blood glucose, fed state / HbA1c: Day 56, mean ± S.E.M.", "protocol": "A total of forty-six (46) diabetic db/db (BKS.Cg-m+/+Leprdb/J) male mice, 5 weeks old at arrival, was obtained from Janvier (France). The mice were acclimatized for two weeks in their new environment with free access to normal chow (Altromin 1324, Brogaarden A/S, Gentofte, Denmark) and domestic quality tap water. They were housed in groups of n=2 in a light-, temperature-, and humidity-controlled room (12-hour light: 12-hour dark cycle, lights On/Off at 04.00/16.00 h; 22±1° C.; 50±10% relative humidity). During the habituation period animals was accustomed to the experimental paradigm.\nas §1, with “SC. Group 2: SEQ ID NO 6, 50 nmol/kg, BID, SC. Group 3: SEQ ID NO 6, 250 nmol/kg, BID, SC.” for “SC.”\nOn experimental day 56 an oral glucose tolerance test was performed. Animals were mildly fasted as food was removed 4 hours prior to administration of the glucose bolus. Compounds were administered 45 minutes prior to the OGTT. At t=0, mice received an oral glucose load of 2 g/kg glucose (Glucose 200 mg/ml, Fresenius Kabi, Sweden). Glucose was given as gavage via a gastrically placed tube connected to a syringe ensuring accurate dosing. Blood samples were collected from the tail vein and blood-glucose was measured at time points −60, 0, 15, 30, 60, 120 and 240 minutes after the glucose administration. Samples for measuring HbA1c was taken in parallel with blood glucose at t=−60 minutes. Mice were re-fed after the last blood sampling."}}, "note": "Marks after values point to notes of the source that are not given here."}
{"substance": "R^1-HGDGSFTSELSTYLDALAARDFIAWLIQTKITDR^2 [SEQ ID NO 6]", "values": [{"measurement": "effect on small intestine volume and surface area", "setting": "[1]; 8 weeks of treatment, 50 and 250 nmol/kg", "result": "marked increase in small intestine volume as well as surface area"}, {"measurement": "Large intestine surface area", "setting": "[1]; 50 nmol/kg BID SC", "result": "3.6 ± 1.2", "unit": "cm^2"}, {"measurement": "Large intestine volume", "setting": "[1]; 50 nmol/kg BID SC", "result": "274.2 ± 7.0", "unit": "mm^3"}, {"measurement": "Small intestine surface area", "setting": "[1]; 50 nmol/kg BID SC", "result": "348.9 ± 10.8*** cm^2"}, {"measurement": "Small intestine volume", "setting": "[1]; 50 nmol/kg BID SC", "result": "2097 ± 72.7*** mm^3"}, {"measurement": "Large intestine surface area", "setting": "[1]; 250 nmol/kg BID SC", "result": "18.6 ± 1.9", "unit": "cm^2"}, {"measurement": "Large intestine volume", "setting": "[1]; 250 nmol/kg BID SC", "result": "288.2 ± 23.7", "unit": "mm^3"}, {"measurement": "Small intestine surface area", "setting": "[1]; 250 nmol/kg BID SC", "result": "344.0 ± 20.8*** cm^2"}, {"measurement": "Small intestine volume", "setting": "[1]; 250 nmol/kg BID SC", "result": "2043 ± 62.3*** mm^3"}, {"measurement": "ranking of GLP-2 receptor potency", "setting": "GLP-2R", "result": "most potent GLP-2 receptor agonist"}, {"measurement": "Oral glucose tolerance test AUC, 0-120 min", "setting": "C57BL/6J mice; Day 7, 3.0 mg/kg BID SC, glucose 2 g/kg oral, mean ± S.E.M.", "result": "523 ± 112", "unit": "mmol·min/L"}, {"measurement": "blood glucose compared to vehicle and teduglutide", "setting": "C57BL/6J mice; dosed twice daily for 7 days", "result": "significantly reduced fasting blood glucose"}, {"measurement": "effect on fed-state blood glucose, HbA1c and glucose tolerance", "setting": "[2]; 8 weeks of treatment, db/db mice", "result": "reduction in fed-state blood glucose, HbA1c levels as well as an improving of glucose tolerance in a dose dependent manner"}, {"measurement": "Blood glucose, fed state", "setting": "[2]; 50 nmol/kg BID SC", "result": "7.2 ± 1.0", "unit": "mmol/L"}, {"measurement": "HbA1c", "setting": "[2]; 50 nmol/kg BID SC", "result": "5.0 ± 0.2", "unit": "%"}, {"measurement": "Blood glucose, fed state", "setting": "[2]; 250 nmol/kg BID SC", "result": "5.9 ± 0.4", "unit": "mmol/L"}, {"measurement": "HbA1c", "setting": "[2]; 250 nmol/kg BID SC", "result": "4.4 ± 0.1", "unit": "%"}]}
